Measured values: patent publication US20260242320A1, “USE OF CANNABIDIOL DERIVATIVE IN PREPARATION OF MEDICAMENT” (priority 2023, published 2026)
Read-outs that look alike come from different tables or passages of the source.

Assays:
CB2 Receptor = target: T1, CB2 Receptor (Homo sapiens, UniProt P34972); experiment: cAMP measurement, forskolin-induced cAMP accumulation, CB2; assay type: cell-based
T1 construct: expressed in transfected cells; host or cells: GloSensor 22-F HEK293 cells
Procedure: (§1) GloSensor 22-F HEK293 cells were transfected with plasmids encoding different receptors (CB1 and CB2). After 24 h, HEK293 cells were seeded at a density of 5×10^4 cells per well in 96-well plates and incubated for 8 h; then, the medium was removed, and 200 μL of serum-free DMEM medium containing 2% GloSensor cAMP substrate (Promega) was added. After 2 h incubation, the transfected cells were stimulated with different concentrations of ligands together with […]. The luminescence was recorded using a Multimode Plate Reader (En Vision, PerkinElmer).

morphine-treated mice = experiment: Morphine-induced behavioral sensitization; assay type: in vivo; details: 0.2 mg/kg i.p., mice
Procedure: Mice were placed into the test chamber (40×40×40 cm^3) for 60 min to habituate the chamber for three consecutive days. […] Locomotor activity was recorded daily for 60 min after the administration of drugs. Next, all the mice were subjected to a 7-day withdrawal period (days 8-14). Subsequently, mice were given morphine (5 mg/kg, i.p.), and locomotor activity was recorded to determine behavioral sensitization.

morphine-dependent mice = experiment: Naloxone-precipitated morphine withdrawal jumps; assay type: in vivo; details: 2 μg/kg, 20 μg/kg, 0.2 mg/kg i.p.
Procedure: Mice were intraperitoneally injected with an escalating dose of morphine three times daily for 3 days (5, 20, and 40 mg/kg) to induce addiction. On the fourth day, mice were given morphine (40 mg/kg) or vehicle (5 mL/kg). […] The withdrawal was precipitated by naloxone. Each mouse was placed into a transparent plastic box immediately, and the number of jumps was recorded for 15 min.

[1] = tested on: LPS-induced IL-1β, TNF-α, IL-6, iNOS, IL-10 mRNA in BV-2 cells; experiment: qRT-PCR of proinflammatory and M1/M2 marker mRNAs in LPS-treated BV-2 cells; assay type: cell-based; details: BV-2 cells
Procedure: Total RNA was extracted from cells or mouse brains using the RNeasy Mini Kit. Isolated RNA was reverse-transcribed into cDNA using an RT2 Easy First Strand cDNA Synthesis Kit following the manufacturer's protocols. PCR amplification was conducted using synthetic primers, SYBR Green, and a TOptical Real-Time qPCR Thermal Cycler (Analytik Jena, Thuringia, Germany). The data were analyzed by the […] method, and Rpl711 or Rpl27 was used as an internal control.

[2] = Pharmacokinetic profiles in brain and plasma after oral administration; assay type: in vivo, mice; details: male, BALB/c, mouse, 10 mg/kg p.o., read-out: B/P ratio
BV-2 cellular viability = experiment: Cell viability / cytotoxicity by crystal violet staining; assay type: cell-based; details: Mus musculus, BV-2, read-out: Cellular toxicity (IC50 inhibiting BV-2 cellular viability)
Procedure: 100 μL of culture medium were transferred to a black 96-well plate for later use. Following removal of old culture medium, 100 μL of 4% paraformaldehyde was added for fixation. Fixation was performed for 5 minutes. Paraformaldehyde was then removed, and 100 μL of 0.05% crystal violet was added. The resultant mixture was incubated for 15 minutes, after which time crystal violet was removed and the mixture was slowly rinsed with water three times. Next, 150 μL of ethanol was added, and the mixture was incubated for 15 minutes. After incubation, the absorbance was measured at 540 nm using a spectrophotometer. Viability (%)=100× Fluorescence values of the dosing group/Fluorescence values of the blank group.
Cell viability was determined by crystal violet staining. Briefly, BV-2 cells were treated as indicated in the NO assay. The media was removed, and then 4% paraformaldehyde was added to fix the cells for 5 min. Cells were stained with 100 μL 0.05% crystal violet for 15 min and washed with water 2 times. Next, 150 μL of ethanol was added to each well, and the plate was incubated for 15 min at room temperature. Absorbance at 540 nm was measured using a SYNERGY H1 Microplate Reader.

CB1 Receptor = target: T2, CB1 Receptor (Homo sapiens, UniProt P21554); experiment: cAMP measurement, forskolin-induced cAMP accumulation, CB1; assay type: cell-based
T2 construct: expressed in transfected cells; host or cells: GloSensor 22-F HEK293 cells
T2 sequence (P21554 whole entry): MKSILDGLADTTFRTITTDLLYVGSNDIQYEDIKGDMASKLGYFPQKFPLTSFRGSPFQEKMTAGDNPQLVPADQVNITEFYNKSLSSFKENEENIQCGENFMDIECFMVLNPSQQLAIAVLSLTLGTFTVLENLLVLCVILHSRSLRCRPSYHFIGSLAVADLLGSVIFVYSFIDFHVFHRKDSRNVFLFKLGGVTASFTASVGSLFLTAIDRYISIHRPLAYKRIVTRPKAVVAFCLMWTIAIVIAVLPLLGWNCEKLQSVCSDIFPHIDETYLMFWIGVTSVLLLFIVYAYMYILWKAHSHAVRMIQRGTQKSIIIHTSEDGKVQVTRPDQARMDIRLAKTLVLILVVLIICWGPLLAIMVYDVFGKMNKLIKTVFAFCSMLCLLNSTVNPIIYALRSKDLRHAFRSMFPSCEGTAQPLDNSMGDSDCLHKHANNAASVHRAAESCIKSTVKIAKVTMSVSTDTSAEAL
Procedure: as §1

[3] = Pharmacokinetic profiles in brain and plasma after oral administration; assay type: in vivo, mice; details: 10 mg/kg p.o.
Procedure: Following administration, mice (BALB/c, male, 20-25 g) were sacrificed at 0.5, 1, 2, 3, and 4 h. The blood and brain tissue were collected and extracted with acetonitrile.

[4] = tested on: LPS-induced proinflammatory factor nitric oxide (NO) in immunocompetent BV-2 cells; experiment: NO assay: inhibition of LPS-induced NO overproduction in BV-2 cells; assay type: cell-based; details: Mus musculus, read-out: Antineuroinflammatory activity (IC50 inhibiting LPS-induced NO)
Procedure: BV-2 cells were seeded at a density of 5×10^4 cells per milliliter in 96-well plates. After 24 h incubation, the media was removed and changed to DMEM without FBS and penicillin-streptomycin. LPS (200 ng/mL) and different concentrations of compounds were added. After 24 h treatment, 100 μL of media was transferred to flat black 96-well micro fluor plates, and then, 10 μL of 0.05 mg/mL 2,3-diaminonaphthalene was added and incubated in the dark for 15 min. 5 μL of NaOH (3 M) was subsequently added to each well to quench the reaction. NO inhibition ratio was analyzed by a SYNERGY H1 Microplate Reader (BioTek Instruments, Carlsbad, CA, USA) with excitation at 360 nm and emission at 430 nm. The fluorescence value of the LPS-treated group was set as 100%.

T1 sequence (P34972 whole entry): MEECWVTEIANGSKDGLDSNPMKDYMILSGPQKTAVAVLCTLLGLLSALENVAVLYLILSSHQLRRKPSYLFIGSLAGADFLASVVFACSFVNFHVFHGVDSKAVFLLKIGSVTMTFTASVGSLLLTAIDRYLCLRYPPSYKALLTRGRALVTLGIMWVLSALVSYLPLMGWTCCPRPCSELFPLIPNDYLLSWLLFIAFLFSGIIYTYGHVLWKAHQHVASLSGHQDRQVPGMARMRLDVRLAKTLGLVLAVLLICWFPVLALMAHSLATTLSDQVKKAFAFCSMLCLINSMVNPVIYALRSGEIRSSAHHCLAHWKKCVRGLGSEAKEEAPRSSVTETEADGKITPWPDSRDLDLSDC

SMILES: C=C(C)[C@@H]1CCC(C)=C[C@H]1c1c(O)cc(CCCCC)cc1O [CBD, (1′R,2′R)-5′-Methyl-4-pentyl-2′-(prop-1-en-2-yl)-1′,2′,3′,4′-tetra-hydro-[1,1′-biphenyl]-2,6-diol, reference compound]
- CB2 Receptor ΔEmax (CB2 Receptor; HEK293 transfected with CB2, forskolin-induced cAMP): 30.2 ± 0.9%
- CB2 receptor activity (CB2 Receptor; cAMP assay): slight CB1/CB2 receptor activity
- development of morphine-induced behavioral sensitization (induction period) (morphine-treated mice): not obvious
- naloxone-precipitated withdrawal jumps (morphine-dependent mice): failed to significantly alleviate
- LPS-induced overexpression of IL-1β mRNA [1]: inhibited IL-1β overexpression only at 10 μM
- LPS-induced overexpression of IL-6 mRNA [1]: failed to inhibit
- LPS-induced overexpression of TNF-α mRNA [1]: failed to inhibit
- LPS-induced IL-6 mRNA expression at 10 μM ([1]; 10 μM): augmented
- Kp at 0.083 h ([2]; 0.083 h): 0.864 ± 0.227
- Kp at 0.25 h ([2]; 0.25 h): 0.358 ± 0.106
- IC50 (BV-2 cellular viability): 8.5 ± 0.9 µM
- CB1 Receptor ΔEmax (CB1 Receptor; HEK293 transfected with CB1, forskolin-induced cAMP): 13.3 ± 0.1%
- CB1 receptor activity (CB1 Receptor; cAMP assay): slight CB1/CB2 receptor activity
- AUC0→t ([3]; brain, mice): 66.7 ng·h/g
- AUC0→∞ ([3]; brain, mice): 85.0 ng·h/g
- MRT ([3]; brain, mice): 42 min
- Tmax ([3]; brain, mice): 30 min
- t1/2 ([3]; brain, mice): 30 min
- Kp ([3]; male, BALB/c, mouse, brain / plasma, oral, read-out: B/P ratios within the first 3 h after administration): < 1
- Kp at 0.5 h ([3]; male, BALB/c, mouse, brain / plasma, po, 0.5 h, read-out: B/P ratio): 0.93 ± 0.176
- Kp at 1 h ([3]; male, BALB/c, mouse, brain / plasma, po, 1 h, read-out: B/P ratio): 0.839 ± 0.144
- IC50 ([4]; BV-2 cells, LPS 200 ng/mL, 24 h): 12.3 ± 3.1 µM

SMILES: C=C(C)[C@@H]1CCC(C)=C[C@H]1c1c(OC)cc(CCCCC)cc1OC [Compound 1b, (1R,2R)-2′,6′-Dimethoxy-5-methyl-4′-pentyl-2-(prop-1-en-2-yl)-1,2,3,4-tetrahydro-1,1′-biphenyl]
- IC50 (BV-2 cellular viability): > 200 µM
- IC50 ([4]; BV-2, 24 h): > 200 µM

SMILES: C=C(C)[C@@H]1CCC(C)=C[C@H]1c1c(O)cc(CCCCC)cc1OCC [Compound 2a, (1′ R,2′R)-6-Ethoxy-5′-methyl-4-pentyl-2′-(prop-1-en-2-yl)-1′,2′,3′,4′-tetrahydro-[1,1′-biphenyl]-2-ol]
- IC50 (BV-2 cellular viability): 176 ± 7.4 µM
- IC50 ([4]; BV-2, 24 h): 167 ± 16.9 µM

SMILES: C=C(C)[C@@H]1CCC(C)=C[C@H]1c1c(OCC)cc(CCCCC)cc1OCC [Compound 2b, (1R,2R)-2′,6′-Diethoxy-5-methyl-4′-pentyl-2-(prop-1-en-2-yl)-1,2,3,4-tetrahydro-1,1′-biphenyl]
- IC50 (BV-2 cellular viability): > 200 µM
- IC50 ([4]; BV-2, 24 h): > 200 µM

SMILES: C=C(C)[C@@H]1CCC(C)=C[C@H]1c1c(O)cc(CCCCC)cc1OCCC [Compound 3a, (1′R,2′R)-5′-Methyl-4-pentyl-2′-(prop-1-en-2-yl)-6-propoxy-1′,2′,3′,4′-tetrahydro-[1,1′-biphenyl]-2-ol]
- IC50 (BV-2 cellular viability): > 200 µM
- IC50 ([4]; BV-2, 24 h): > 200 µM

SMILES: C=C(C)[C@@H]1CCC(C)=C[C@H]1c1c(OCCC)cc(CCCCC)cc1OCCC [Compound 3b, (1R,2R)-5-Meth-yl-4′-pentyl-2-(prop-1-en-2-yl)-2′,6′-dipropoxy-1,2,3,4-tetrahydro-1,1′-biphenyl]
- IC50 (BV-2 cellular viability): > 200 µM
- IC50 ([4]; BV-2, 24 h): > 200 µM

SMILES: C=CCOc1cc(CCCCC)cc(O)c1[C@@H]1C=C(C)CC[C@H]1C(=C)C [Compound 4a, (1′R,2′R)-6-(Allyloxy)-5′-methyl-4-pentyl-2′-(prop-1-en-2-yl)-1′,2′,3′,4′-tetrahydro-[1,1′-biphenyl]-2-ol]
- IC50 (BV-2 cellular viability): 71.5 ± 9.4 µM
- IC50 ([4]; BV-2, 24 h): 59.8 ± 15.6 µM

SMILES: C=CCOc1cc(CCCCC)cc(OCC=C)c1[C@@H]1C=C(C)CC[C@H]1C(=C)C [Compound 4b, (1R,2R)-2′,6′-Bis(allyloxy)-5-methyl-4′-pentyl-2-(prop-1-en-2-yl)-1,2,3,4-tetrahy-dro-1,1′-biphenyl]
- IC50 (BV-2 cellular viability): > 200 µM
- IC50 ([4]; BV-2, 24 h): > 200 µM

SMILES: C#CCOc1cc(CCCCC)cc(O)c1[C@@H]1C=C(C)CC[C@H]1C(=C)C [Compound 5a, (1′R,2′R)-5′-Methyl-4-pentyl-2′-(prop-1-en-2-yl)-6-(prop-2-yn-1-yloxy)-1′,2′,3′,4′-tetrahydro-[1,1′-biphenyl]-2-ol]
- IC50 (BV-2 cellular viability): 65 ± 7.9 µM
- IC50 ([4]; BV-2, 24 h): 99.6 ± 16.3 µM

SMILES: C#CCOc1cc(CCCCC)cc(OCC#C)c1[C@@H]1C=C(C)CC[C@H]1C(=C)C [Compound 5b, (1R,2R)-5-Methyl-4′-pentyl-2-(prop-1-en-2-yl)-2′,6′-bis(prop-2-yn-1-yloxy)-1,2,3,4-tetrahydro-1,1′-biphenyl]
- IC50 (BV-2 cellular viability): > 200 µM
- IC50 ([4]; BV-2, 24 h): > 200 µM

SMILES: C=C(C)[C@@H]1CCC(C)=C[C@H]1c1c(O)cc(CC)cc1O [Compound 12a, (1′R,2′R)-4-Ethyl-5′-methyl-2′-(prop-1-en-2-yl)-1′,2′,3′,4′-tetra-hydro-[1,1′-biphenyl]-2,6-diol]
- IC50 (BV-2 cellular viability): 22.6 ± 1.6 µM
- IC50 ([4]; BV-2, 24 h): 2.5 ± 0.3 µM

SMILES: C=C(C)[C@@H]1CCC(C)=C[C@H]1c1c(O)cc(CCC)cc1O [Compound 12b, (1′R,2′R)-5′-Methyl-2′-(prop-1-en-2-yl)-4-propyl-1′,2′,3′,4′-tetra-hydro-[1,1′-biphenyl]-2,6-diol, reference compound]
- IC50 (BV-2 cellular viability): 18.3 ± 4.4 µM
- IC50 ([4]; BV-2, 24 h): 5.3 ± 2.9 µM

SMILES: C=C(C)[C@@H]1CCC(C)=C[C@H]1c1c(O)cc(CCCC)cc1O [Compound 12c]
- IC50 (BV-2 cellular viability): 11.1 ± 2.8 µM
- IC50 ([4]; BV-2, 24 h): 5 ± 3.5 µM

SMILES: C=C(C)[C@@H]1CCC(C)=C[C@H]1c1c(O)cc(CCCCCC)cc1O [Compound 12e, (1′R,2′R)-4-Hexyl-5′-methyl-2′-(prop-1-en-2-yl)-1′,2′,3′,4′-tetra-hydro-[1,1′-biphenyl]-2,6-diol]
- IC50 (BV-2 cellular viability): 19 ± 0.5 µM
- IC50 ([4]; BV-2, 24 h): 2.1 ± 0.4 µM

SMILES: C=C(C)[C@@H]1CCC(C)=C[C@H]1c1c(O)cc(CCCCCCC)cc1O [Compound 12f, (1′R,2′R)-4-Heptyl-5′-methyl-2′-(prop-1-en-2-yl)-1′,2′,3′,4′-tetra-hydro-[1,1′-biphenyl]-2,6-diol]
- IC50 (BV-2 cellular viability): 14.1 ± 0.7 µM
- IC50 ([4]; BV-2, 24 h): 42 ± 9.3 µM

SMILES: C=C(C)[C@@H]1CCC(C)=C[C@H]1c1c(O)cc(CCCCCCCC)cc1O [Compound 12g, (1′R,2′R)-5′-Methyl-4-octyl-2′-(prop-1-en-2-yl)-1′,2′,3′,4′-tetra-hydro-[1,1′-biphenyl]-2,6-diol]
- IC50 (BV-2 cellular viability): 26.2 ± 5.2 µM
- IC50 ([4]; BV-2, 24 h): 174 ± 33 µM

SMILES: C=C(C)[C@@H]1CCC(C)=C[C@H]1c1c(O)cc(CCCCCCCCCCCC)cc1O [Compound 12h, (1′R,2′R)-4-Dodecyl-5′-methyl-2′-(prop-1-en-2-yl)-1′,2′,3′,4′-tet-rahydro-[1,1′-biphenyl]-2,6-diol]
- IC50 (BV-2 cellular viability): > 200 µM
- IC50 ([4]; BV-2, 24 h): > 200 µM

SMILES: C=C(C)[C@@H]1CCC(C)=C[C@H]1c1c(O)cc(C(C)n2ccnc2)cc1O (stereo partly drawn) [Compound 19c, (1′R,2′R)-4-(1-(1H-Imidazole-1-yl)ethyl)-5′-methyl-2′-(prop-1-en-2-yl)-1′,2′,3′,4′-tetrahydro-[1,1′-biphenyl]-2,6-diol]
- IC50 (BV-2 cellular viability): 32.6 ± 3.2 µM
- IC50 ([4]; BV-2, 24 h): 4.4 ± 0.5 µM
